This is an account of results in ChEMBL document CHEMBL5335835, “Terpenes and Terpenoids Conjugated with BODIPYs: An Overview of Biological and Chemical Properties” (J Nat Prod, 2024).

Molecules are shown by their SMILES.

In the assay the target is T1, Alpha-tocopherol transfer protein (Homo sapiens, UniProt P49638).
T1 sequence (P49638 whole entry): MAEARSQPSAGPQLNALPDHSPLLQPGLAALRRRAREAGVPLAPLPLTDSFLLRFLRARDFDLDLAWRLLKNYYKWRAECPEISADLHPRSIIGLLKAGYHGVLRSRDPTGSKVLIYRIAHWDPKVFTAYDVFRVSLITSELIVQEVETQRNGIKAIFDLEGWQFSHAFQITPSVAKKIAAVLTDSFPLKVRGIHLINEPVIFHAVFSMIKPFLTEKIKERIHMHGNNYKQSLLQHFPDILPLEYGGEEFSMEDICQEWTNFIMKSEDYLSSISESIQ
The assay is described as follows: Binding affinity to human alpha-TTP assessed as dissociation constant incubated for 25 to 40 mins by fluorescence based assay.

As usually defined, the Kd is the concentration at which binding is half-saturated. Take `CC1=CC(C)=[N+]2C1=Cc1ccc(CCCCCCCC[C@]3(C)CCc4c(C)c(O)c(C)c(C)c4O3)n1[B-]2(F)F`: the Kd was 94 nM.
